Assay results taken from patent publication US12233047B2, “Pharmaceutical combination and use thereof” (ASCENTAGE PHARMA (SUZHOU) CO., LTD., priority 2019, dated 2025).
Substitutions are numbered along the chain they refer to.

Legend:
FLT3 (K663Q) = biological target: T1, FLT3 (K663Q) (Homo sapiens, UniProt P36888, K663Q); assay: KINOMEscan kinase binding assay, FLT3 (K663Q)
T1 construct: host or cells: T7 phage in E. coli (BL21-derived) or HEK-293
T1 sequence (P36888 27-993 K663Q): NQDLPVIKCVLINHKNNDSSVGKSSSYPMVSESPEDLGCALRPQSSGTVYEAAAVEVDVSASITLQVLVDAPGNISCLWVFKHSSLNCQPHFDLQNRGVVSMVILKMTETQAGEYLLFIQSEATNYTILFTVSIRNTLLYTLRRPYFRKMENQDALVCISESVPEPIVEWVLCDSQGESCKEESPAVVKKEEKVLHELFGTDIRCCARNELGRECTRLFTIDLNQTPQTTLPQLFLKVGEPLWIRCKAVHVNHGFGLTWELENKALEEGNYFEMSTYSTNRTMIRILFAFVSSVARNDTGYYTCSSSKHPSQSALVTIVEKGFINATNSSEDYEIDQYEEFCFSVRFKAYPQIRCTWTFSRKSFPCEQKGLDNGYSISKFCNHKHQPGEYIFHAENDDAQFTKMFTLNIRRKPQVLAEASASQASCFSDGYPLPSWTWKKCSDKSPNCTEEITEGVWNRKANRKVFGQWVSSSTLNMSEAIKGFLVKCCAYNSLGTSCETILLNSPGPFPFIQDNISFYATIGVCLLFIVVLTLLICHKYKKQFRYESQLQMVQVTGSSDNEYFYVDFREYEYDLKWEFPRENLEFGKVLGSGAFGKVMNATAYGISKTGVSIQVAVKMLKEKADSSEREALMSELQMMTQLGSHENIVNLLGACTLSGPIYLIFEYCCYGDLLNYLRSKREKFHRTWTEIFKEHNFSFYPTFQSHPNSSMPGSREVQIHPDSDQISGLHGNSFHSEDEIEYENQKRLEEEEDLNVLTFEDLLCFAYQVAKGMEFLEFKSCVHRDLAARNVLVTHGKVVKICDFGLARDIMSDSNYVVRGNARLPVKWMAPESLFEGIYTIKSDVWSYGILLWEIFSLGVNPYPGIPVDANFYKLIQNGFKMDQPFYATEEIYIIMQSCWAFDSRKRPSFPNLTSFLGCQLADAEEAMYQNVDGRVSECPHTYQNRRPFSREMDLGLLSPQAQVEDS
Procedure: (§1) The kinase assay was conducted using KINOMEscan™.
(§2) Kinase-tagged T7 phage strains were grown in parallel in 24-well blocks in an E. coli host derived from the BL21 strain. E. coli were grown to log-phase and infected with T7 phage from a frozen stock (multiplicity of infection=0.4) and incubated with shaking at 32° C. until lysis (90-150 minutes). The lysates were centrifuged (6,000×g) and filtered (0.2 μm) to remove cell debris. The remaining kinases were produced in HEK-293 cells and subsequently tagged with DNA for qPCR detection. Streptavidin-coated magnetic beads were treated with biotinylated small molecule ligands for 30 minutes at room temperature to generate affinity resins for kinase assays. The liganded beads were blocked with excess biotin and washed with blocking buffer (SeaBlock (Pierce), 1% BSA, 0.05% Tween 20, 1 mM DTT) to remove unbound ligand and to reduce non-specific phage binding. Binding reactions were assembled by combining kinases, liganded affinity beads, and test compound (Compound 23) in 1× binding buffer (20% SeaBlock, 0.17×PBS, 0.05% Tween 20, 6 mM DTT). Test compound were prepared as 40× stocks in 100% DMSO and directly diluted into the assay. All reactions were performed in polypropylene 384-well plates in a final volume of 0.04 ml. […] The kinase concentration in the eluates was measured by qPCR. […]

FLT3 (R834Q) = biological target: T2, FLT3 (R834Q) (Homo sapiens, UniProt P36888, R834Q); assay: KINOMEscan kinase binding assay, FLT3 (R834Q)
T2 construct: host or cells: T7 phage in E. coli (BL21-derived) or HEK-293
T2 sequence (P36888 27-993 R834Q): T1 sequence (P36888 27-993 K663Q) with Q637K, R808Q
Procedure: as §1, §2

Cc1ccc(C(=O)Nc2ccc(CN3CCN(C)CC3)c(C(F)(F)F)c2)cc1C#Cc1cnc2[nH]ncc2c1 [Compound 23, 3-(2-(1H-pyrazolo[3,4-b]pyridin-5-yl)ethynyl)-4-methyl-N-(4-((4-methylpiperazin-1-yl)methyl)-3-(trifluoromethyl)phenyl)benzamide]
% Ctrl@10 nM (FLT3 (K663Q); 10 nM): 5 % Ctrl
% Ctrl@100 nM (FLT3 (K663Q); 100 nM): 0.6 % Ctrl
% Ctrl@10 nM (FLT3 (R834Q); 10 nM): 23 % Ctrl
% Ctrl@100 nM (FLT3 (R834Q); 100 nM): 15 % Ctrl
